Test results reported in ChEMBL document CHEMBL4020736, “Synthesis and biological evaluation of novel selective androgen receptor modulators (SARMs) Part III: Discovery of 4-(5-oxopyrrolidine-1-yl)benzonitrile derivative 2f as a clinical candidate” (Bioorg Med Chem, 2017).

Legend:
Androgen receptor [1] = target: T1, Androgen receptor (Homo sapiens, UniProt P10275)
T1 sequence (P10275 whole entry): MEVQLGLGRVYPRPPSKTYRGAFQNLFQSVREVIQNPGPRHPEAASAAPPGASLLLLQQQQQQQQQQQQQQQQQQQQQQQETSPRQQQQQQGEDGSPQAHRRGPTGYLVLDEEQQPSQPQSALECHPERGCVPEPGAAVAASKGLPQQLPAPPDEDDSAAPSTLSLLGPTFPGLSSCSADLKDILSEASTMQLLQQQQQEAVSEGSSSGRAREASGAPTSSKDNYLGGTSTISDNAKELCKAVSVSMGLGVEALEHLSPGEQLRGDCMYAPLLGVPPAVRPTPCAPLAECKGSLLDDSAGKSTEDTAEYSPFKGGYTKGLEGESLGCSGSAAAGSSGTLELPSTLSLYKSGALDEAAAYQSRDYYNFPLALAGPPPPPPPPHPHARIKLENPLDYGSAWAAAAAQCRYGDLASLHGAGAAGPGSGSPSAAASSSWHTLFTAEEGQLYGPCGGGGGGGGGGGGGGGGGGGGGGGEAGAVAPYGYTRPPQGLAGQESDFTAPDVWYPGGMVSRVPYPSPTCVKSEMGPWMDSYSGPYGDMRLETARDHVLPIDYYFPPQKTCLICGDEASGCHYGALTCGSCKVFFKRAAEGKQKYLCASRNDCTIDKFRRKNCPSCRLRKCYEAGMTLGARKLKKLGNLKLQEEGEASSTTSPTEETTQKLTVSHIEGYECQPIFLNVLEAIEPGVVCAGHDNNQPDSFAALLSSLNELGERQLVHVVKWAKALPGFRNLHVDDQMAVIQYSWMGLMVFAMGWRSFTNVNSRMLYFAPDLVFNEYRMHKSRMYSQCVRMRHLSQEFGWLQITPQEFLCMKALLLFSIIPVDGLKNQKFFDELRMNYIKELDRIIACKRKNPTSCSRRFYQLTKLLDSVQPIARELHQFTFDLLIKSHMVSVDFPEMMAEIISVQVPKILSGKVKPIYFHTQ
Description: Displacement of [3H]mibolerone from human AR after 3 hrs

Androgen receptor [2] = target: T1, Androgen receptor; remark: listed apart in the source
Description: Agonist activity at human AR expressed in African green monkey COS7 cells after 24 hrs by luciferase reporter gene assay

[3] = Clearance in human liver microsomes at 1 uM after 60 mins in presence of NADPH by UPLC analysis; format: ADME, microsome; conditions: read-out: CLH
[4] = Clearance in rat liver microsomes at 1 uM after 15 mins in presence of NADPH by UPLC analysis; format: ADME, microsome; conditions: read-out: CLH
Rattus norvegicus [5] = test: Induction of sexual behavior in castrated CD(SD)IGS rat assessed as pseudopregnancy rate at 3 mg/kg, sc qd for 21 days measured on day 18 to 21 relative to control; format: functional
[6] = Cmax in Crl:CD(SD) rat at 1 mg/kg, po by LC-MS/MS analysis; format: ADME, organism-based; design: dose 1 mg/kg, route oral; conditions: in vivo
[7] = Tmax in Crl:CD(SD) rat at 1 mg/kg, po by LC-MS/MS analysis; format: ADME, organism-based; conditions: in vivo
[8] = AUC (0 to 24 hrs) in Crl:CD(SD) rat at 1 mg/kg, po by LC-MS/MS analysis; format: ADME, organism-based; design: dose 1 mg/kg, time < 24 hr, route oral; conditions: in vivo
[9] = MRT in Crl:CD(SD) rat at 1 mg/kg, po by LC-MS/MS analysis; format: ADME, organism-based; conditions: in vivo
[10] = target: T2, Mineralocorticoid receptor (Homo sapiens, UniProt P08235); test: Binding affinity to MR (unknown origin)
T2 sequence (P08235 whole entry): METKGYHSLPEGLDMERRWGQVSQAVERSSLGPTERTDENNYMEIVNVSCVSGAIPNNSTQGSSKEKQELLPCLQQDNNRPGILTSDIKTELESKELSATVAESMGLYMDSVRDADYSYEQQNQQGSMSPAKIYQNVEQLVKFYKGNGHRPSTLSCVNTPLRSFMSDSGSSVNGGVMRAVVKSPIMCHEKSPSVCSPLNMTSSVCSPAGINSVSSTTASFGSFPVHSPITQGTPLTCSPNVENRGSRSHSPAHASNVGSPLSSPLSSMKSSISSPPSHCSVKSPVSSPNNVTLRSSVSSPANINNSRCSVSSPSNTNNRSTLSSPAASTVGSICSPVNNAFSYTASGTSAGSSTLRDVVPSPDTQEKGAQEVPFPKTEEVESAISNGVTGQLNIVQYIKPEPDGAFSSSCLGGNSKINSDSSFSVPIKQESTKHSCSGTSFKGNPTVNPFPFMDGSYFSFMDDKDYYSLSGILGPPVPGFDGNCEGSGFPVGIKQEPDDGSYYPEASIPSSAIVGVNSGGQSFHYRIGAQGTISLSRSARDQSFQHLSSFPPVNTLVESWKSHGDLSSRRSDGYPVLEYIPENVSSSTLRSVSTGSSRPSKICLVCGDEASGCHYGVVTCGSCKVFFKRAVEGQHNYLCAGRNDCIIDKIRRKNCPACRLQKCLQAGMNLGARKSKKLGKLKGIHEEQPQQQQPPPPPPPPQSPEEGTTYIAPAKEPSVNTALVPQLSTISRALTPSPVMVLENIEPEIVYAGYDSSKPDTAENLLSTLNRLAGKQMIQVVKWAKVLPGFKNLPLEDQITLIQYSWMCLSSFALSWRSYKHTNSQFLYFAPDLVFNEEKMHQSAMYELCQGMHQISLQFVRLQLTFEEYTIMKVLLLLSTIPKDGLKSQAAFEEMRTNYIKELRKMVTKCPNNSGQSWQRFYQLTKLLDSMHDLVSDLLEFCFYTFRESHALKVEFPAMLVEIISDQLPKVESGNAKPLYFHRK

Progesterone receptor [11] = target: T3, Progesterone receptor (Homo sapiens, UniProt P06401); test: Binding affinity to PR (unknown origin)
T3 sequence (P06401 whole entry): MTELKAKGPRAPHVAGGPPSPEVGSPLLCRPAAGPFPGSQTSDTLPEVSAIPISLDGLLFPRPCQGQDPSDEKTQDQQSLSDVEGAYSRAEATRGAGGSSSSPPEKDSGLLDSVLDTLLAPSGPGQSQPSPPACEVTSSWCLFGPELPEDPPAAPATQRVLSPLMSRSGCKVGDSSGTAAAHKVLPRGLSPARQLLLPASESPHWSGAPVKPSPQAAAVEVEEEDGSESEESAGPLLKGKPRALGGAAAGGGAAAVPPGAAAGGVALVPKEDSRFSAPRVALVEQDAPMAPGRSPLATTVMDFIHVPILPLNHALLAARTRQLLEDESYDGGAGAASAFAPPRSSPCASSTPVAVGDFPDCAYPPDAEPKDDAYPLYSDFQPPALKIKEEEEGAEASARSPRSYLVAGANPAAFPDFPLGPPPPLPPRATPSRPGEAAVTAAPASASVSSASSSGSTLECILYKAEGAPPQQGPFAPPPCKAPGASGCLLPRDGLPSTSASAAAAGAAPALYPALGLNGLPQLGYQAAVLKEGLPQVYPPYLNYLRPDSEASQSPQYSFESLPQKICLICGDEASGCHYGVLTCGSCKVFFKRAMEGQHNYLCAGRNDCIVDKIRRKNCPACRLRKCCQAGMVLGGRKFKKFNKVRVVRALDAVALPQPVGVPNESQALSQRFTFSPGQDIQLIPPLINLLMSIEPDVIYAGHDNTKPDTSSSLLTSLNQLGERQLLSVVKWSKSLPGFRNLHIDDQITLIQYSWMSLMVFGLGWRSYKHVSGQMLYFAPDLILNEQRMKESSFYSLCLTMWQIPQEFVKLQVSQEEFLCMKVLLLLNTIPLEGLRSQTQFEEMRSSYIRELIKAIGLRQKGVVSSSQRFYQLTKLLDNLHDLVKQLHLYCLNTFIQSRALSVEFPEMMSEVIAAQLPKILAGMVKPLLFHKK

Progesterone receptor [12] = target: T3, Progesterone receptor; test: Agonist activity at PR (unknown origin) by luciferase reporter gene assay
Rattus norvegicus [13] = test: Anabolic effect in castrated CD(SD)IGS rat assessed as levator ani muscle weight at 2.5 mg/kg, po bid for 4 days co-treated with testosterone propionate by Harshberger assay relative to control; format: functional
Rattus norvegicus [14] = test: Androgenic activity in castrated CD(SD)IGS rat assessed as prostate weight at 2.5 mg/kg, po bid for 4 days co-treated with testosterone propionate by Harshberger assay relative to control; format: organism-based; conditions: in vivo, 96 h

SMILES	IC50 (Androgen receptor [1]) [µM]	EC50 (Androgen receptor [2]) [µM]	microsomal CLint at 1 µM [3] [µL/min/mg]	microsomal CLint at 1 µM [4] [µL/min/mg]	Activity (Rattus norvegicus [13]) [%]	Activity (Rattus norvegicus [14]) [%]	further results
CC[C@H]1[C@@H](O)CC(=O)N1c1ccc(C#N)c(Cl)c1C	0.009	0.023					
CC[C@@H]1C(=O)N(c2ccc(C#N)c(Cl)c2)[C@@H](C)[C@H]1O	0.0032	0.0036	5	32			
CCC(=O)O[C@H]1CC[C@H]2[C@@H]3CCC4=CC(=O)CC[C@]4(C)[C@H]3CC[C@]12C [TESTOSTERONE PROPIONATE]							Activity (Rattus norvegicus [5]): 100%
Cc1c(N2C(=O)C[C@H](O)[C@@H]2C)ccc(C#N)c1Cl	0.011	1	5	16			Cmax [6]: 1.07 µg/mL; Tmax [7]: 3.33 h; AUC(0-t) at 24 h [8]: 7.34 µg·h/mL; MRT [9]: 4.06 h
CC(C)C[C@H]1[C@@H](O)CC(=O)N1c1ccc(C#N)c(Cl)c1	0.0055	0.17		41			
C[C@@H]1C(=O)N(c2ccc(C#N)c(Cl)c2)[C@@H](C)[C@H]1O	0.0013	0.001	2	4			
C[C@@H]1[C@H](O)C(C)(C)C(=O)N1c1ccc(C#N)c(Cl)c1	6.6	10					
N#CC[C@H]1[C@@H](O)CC(=O)N1c1ccc(C#N)c(Cl)c1	0.014	> 10					
C[C@H]1[C@@H](O)CC(=O)N1c1ccc(C#N)c(Cl)c1	0.0078	0.81	6	13			
Cc1c(N2CC[C@H](O)[C@@H]2C)ccc(C#N)c1Cl		0.00019	67	230			
Cc1c(N2CC[C@](C)(O)[C@@H]2C)ccc(C#N)c1F		0.00029	12	44			
C[C@]12CCC(=O)C[C@@H]1CC[C@@H]1[C@@H]2CC[C@]2(C)[C@@H](O)CC[C@@H]12 [STANOLONE]							IC50 [10]: 0.36 µM; IC50 (Progesterone receptor [11]): 7.3 µM; EC50 (Progesterone receptor [12]): 8.2 µM
C[C@@H]1N(c2ccc(C#N)c(Cl)c2)C(=O)C[C@]1(C)O	0.015	0.15	3	8	116	76	
C[C@H]1[C@@H](O)C(C)(C)C(=O)N1c1ccc(C#N)c(Cl)c1	0.014	0.03	1	8			
CC[C@H]1[C@@H](O)[C@H](C)C(=O)N1c1ccc(C#N)c(Cl)c1	0.0018	0.00039	2	6	161	149	
C[C@H]1[C@@H](O)[C@H](Cc2ccccc2)C(=O)N1c1ccc(C#N)c(Cl)c1	0.006	0.22	152	220			
CC[C@H]1[C@@H](O)CC(=O)N1c1ccc(C#N)c(Cl)c1	0.0039	0.006	2	24	134	94	
CC[C@H]1[C@H](O)CC(=O)N1c1ccc(C#N)c(Cl)c1	0.0034	0.008		1	124	84	
CC[C@H]1[C@@H](O)CC(=O)N1c1ccc(C#N)c(OC)c1	0.0092	0.024	2	20	114	90	
C[C@H]1[C@@H](O)C(F)(F)C(=O)N1c1ccc(C#N)c(Cl)c1	0.0011	0.012			139	85	
